Results as given in patent publication US12673947B2 (Cytosinlab Therapeutics Co., Ltd., priority 2020, dated 2026).

Columns and labels:
MV4;11 cells = test: MV4;11 in vitro inhibition of proliferation assay (CellTiter-Glo, 72 hours); assay type: cell-based; details: Homo sapiens, MV4-11, 72 h, IC50 class, read-out: Inhibitory activity of cell proliferation MV4;11
Summary of the method: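 IC50 came from four-parameter fitting of inhibition rates, based on CellTiter-Glo luminescence after 72 hours at 37° C. Each well held 2000 MV4;11 cells grown in IMDM with 10% serum. Compounds formed a nine-point, threefold DMSO series starting at 10 uM, tested in triplicate at 0.3% final DMSO.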

FLT3 = target: T1, FLT3 (Homo sapiens, UniProt P36888); test: FLT3 kinase in vitro inhibitory activity experiment (Caliper mobility shift, conversion rate); assay type: biochemical; details: IC50 class, read-out: Enzyme activity FLT3
T1 construct: purchased Carna 08-145
T1 sequence (P36888 27-993): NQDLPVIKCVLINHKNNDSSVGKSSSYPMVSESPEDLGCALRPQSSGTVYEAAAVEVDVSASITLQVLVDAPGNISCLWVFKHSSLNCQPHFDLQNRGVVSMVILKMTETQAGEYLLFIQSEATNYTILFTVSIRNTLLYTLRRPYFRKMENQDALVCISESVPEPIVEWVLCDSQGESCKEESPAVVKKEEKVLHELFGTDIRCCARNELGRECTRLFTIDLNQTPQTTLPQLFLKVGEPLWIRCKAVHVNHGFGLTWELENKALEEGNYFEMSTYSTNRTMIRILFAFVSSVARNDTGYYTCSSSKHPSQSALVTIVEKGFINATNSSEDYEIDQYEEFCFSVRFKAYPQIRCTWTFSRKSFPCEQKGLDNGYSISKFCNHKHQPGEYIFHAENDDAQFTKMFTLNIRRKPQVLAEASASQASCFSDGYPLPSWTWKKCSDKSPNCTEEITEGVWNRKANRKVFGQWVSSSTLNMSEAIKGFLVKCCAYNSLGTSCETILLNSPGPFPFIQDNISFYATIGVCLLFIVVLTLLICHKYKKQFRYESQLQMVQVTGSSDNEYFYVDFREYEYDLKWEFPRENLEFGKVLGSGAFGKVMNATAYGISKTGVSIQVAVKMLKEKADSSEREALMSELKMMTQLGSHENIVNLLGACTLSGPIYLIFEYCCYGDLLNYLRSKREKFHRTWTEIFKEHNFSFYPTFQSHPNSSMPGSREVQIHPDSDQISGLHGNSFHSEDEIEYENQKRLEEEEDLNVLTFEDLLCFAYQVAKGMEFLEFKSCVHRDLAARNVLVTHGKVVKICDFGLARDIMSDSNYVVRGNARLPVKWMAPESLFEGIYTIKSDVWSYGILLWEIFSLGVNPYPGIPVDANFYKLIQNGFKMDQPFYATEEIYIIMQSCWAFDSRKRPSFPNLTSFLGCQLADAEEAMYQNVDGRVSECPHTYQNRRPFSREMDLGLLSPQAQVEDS
Summary of the method: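 Tested in single wells as ten 3-fold dilutions of a 1 μM initial stock. Compound and FLT3 stood 10 min at room temperature; ATP with Kinase substrate 2 was then added for 30 min at room temperature and the reaction stopped. Conversion was measured by Caliper mobility shift, and inhibition was normalised to control-well conversion.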

IC50 (MV4;11 cells)	IC50 (FLT3)	SMILES
≤ 10 nM	≤ 10 nM	CCc1nc2c(N)ncc(-c3cnn(-c4ccc(F)cc4F)c3)c2nc1N[C@@H]1CC[C@H](O)C1 [Compound 178]
≤ 10 nM	≤ 10 nM	CCc1nc2c(N)ncc(-c3cnn(-c4ccncn4)c3)c2nc1N[C@@H]1CC[C@H](O)C1 [Compound 179]
≤ 10 nM	≤ 10 nM	CCc1nc2c(N)ncc(-c3cnn(-c4ccnc(C)n4)c3)c2nc1N[C@@H]1CC[C@H](O)C1 [Compound 180, (1S,3R)-3-((5-amino-3-ethyl-8-(1-(2-methylpyrimidin-4-yl)-1H-pyrazol-4-yl)pyridino[3,4-b]pyrazin-2-yl)amino)cyclopentan-1-ol]
≤ 10 nM	≤ 10 nM	CCc1nc2c(N)ncc(-c3cnn(C4CCN(CC(C)(C)O)CC4)c3)c2nc1N[C@@H]1CC[C@H](O)C1 [Compound 181]
≤ 10 nM	≤ 10 nM	CCc1nc2c(N)ncc(-c3cnn(C4CCN(CC(C)C)CC4)c3)c2nc1N[C@@H]1CC[C@H](O)C1 [Compound 182]
≤ 10 nM	≤ 10 nM	CCc1nc2c(N)ncc(-c3cnn(C4CCN(C(C)CC)CC4)c3)c2nc1N[C@@H]1CC[C@H](O)C1 (some centres unmarked) [Compound 183]
≤ 10 nM	≤ 10 nM	CCc1nc2c(N)ncc(-c3cnn(C4CCN(C(CC)CC)CC4)c3)c2nc1N[C@@H]1CC[C@H](O)C1 [Compound 184]
≤ 10 nM	≤ 10 nM	CCc1nc2c(N)ncc(-c3cnn(C4CCN(C(=O)C(C)C)CC4)c3)c2nc1N[C@@H]1CC[C@H](O)C1 [Compound 185, 1-(4-(4-(5-amino-3-ethyl-2-(((1R,3S)-3-hydroxycyclopentyl)amino)pyridino[3,4-b]pyrazin-8-yl)-1H-pyrazol-1-yl)piperidin-1-yl)-2-methylpropyl-1-one]
≤ 10 nM	≤ 10 nM	CCc1nc2c(N)ncc(-c3cnn(C4CCN(S(C)(=O)=O)CC4)c3)c2nc1N[C@@H]1CC[C@H](O)C1 [Compound 186]
≤ 10 nM	≤ 10 nM	CCc1nc2c(N)ncc(-c3cnn(C4CCN(S(=O)(=O)C(C)C)CC4)c3)c2nc1N[C@@H]1CC[C@H](O)C1 [Compound 187, (1S,3R)-3-((5-amino-3-ethyl-8-(1-(1-(isopropylsulfonyl)piperidin-4-yl)-1H-pyrazol-4-yl)pyridino[3,4b]pyrazin-2-yl)amino)cyclopentan-1-ol]
≤ 10 nM	≤ 10 nM	CCc1nc2c(N)ncc(-c3cnn(C4CCN(S(=O)(=O)CC(C)C)CC4)c3)c2nc1N[C@@H]1CC[C@H](O)C1 [Compound 188]
≤ 10 nM	≤ 10 nM	CCc1nc2c(N)ncc(-c3cnn(C4CCN(C(=O)NC(C)C)CC4)c3)c2nc1N[C@@H]1CC[C@H](O)C1 [Compound 189]
≤ 10 nM	≤ 10 nM	CCc1nc2c(N)ncc(-c3cnn(C4CCN(C(=O)OC(C)(C)C)CC4)c3)c2nc1N[C@@H]1CC[C@H](O)C1 [Compound 190]
≤ 10 nM	≤ 10 nM	CCc1nc2c(N)ncc(-c3cnn(C4CCCCC4)c3)c2nc1N[C@@H]1CC[C@H](O)C1 [Compound 192]
≤ 10 nM	≤ 10 nM	CCc1nc2c(N)ncc(-c3cnn(C4CCC(F)(F)CC4)c3)c2nc1N[C@@H]1CC[C@H](O)C1 [Compound 193]
≤ 10 nM	≤ 10 nM	CCc1nc2c(N)ncc(-c3cnn(C)c3)c2nc1N[C@@H]1CC[C@H](O)C1 [Compound 194]
10 to 100 nM	10 to 100 nM	CCc1nc2c(N)ncc(-c3cnn(C(CC)CC)c3)c2nc1N[C@@H]1CC[C@H](O)C1 [Compound 195]
10 to 100 nM	≤ 10 nM	CCc1nc2c(N)ncc(-c3cnn(CCOC)c3)c2nc1N[C@@H]1CC[C@H](O)C1 [Compound 196]
10 to 100 nM	≤ 10 nM	CCc1nc2c(N)ncc(-c3cnn(CC(C)(C)O)c3)c2nc1N[C@@H]1CC[C@H](O)C1 [Compound 197]
10 to 100 nM	≤ 10 nM	CCc1nc2c(N)ncc(-c3cnn(CCO)c3)c2nc1N[C@@H]1CC[C@H](O)C1 [Compound 198]
≤ 10 nM	≤ 10 nM	CCc1nc2c(N)ncc(-c3cnn(C4COC4)c3)c2nc1N[C@@H]1CC[C@H](O)C1 [Compound 199]
≤ 10 nM	≤ 10 nM	CCc1nc2c(N)ncc(-c3cnn(CC4COC4)c3)c2nc1N[C@@H]1CC[C@H](O)C1 [Compound 200]

IC50 (MV4;11 cells)	IC50 (FLT3)	SMILES
≤ 10 nM	≤ 10 nM	CCc1nc2c(N)ncc(-c3cnn(C(C)C)c3)c2nc1N[C@@H]1CC[C@H](O)C1 [Compound 201]
≤ 10 nM	≤ 10 nM	CCc1nc2c(N)ncc(-c3cnn(C4CC4)c3)c2nc1N[C@@H]1CC[C@H](O)C1 [Compound 202]
10 to 100 nM	≤ 10 nM	CCc1nc2c(N)ncc(-c3cn[nH]c3)c2nc1N[C@@H]1CC[C@H](O)C1 [Compound 203]
≤ 10 nM	≤ 10 nM	CCc1nc2c(N)ncc(-c3cnn(CC4CCN(C)CC4)c3)c2nc1N[C@@H]1CC[C@H](O)C1 [Compound 204]
≤ 10 nM	≤ 10 nM	CCOCC1(COCC)CCC(n2cc(-c3cnc(N)c4nc(CC)c(N[C@@H]5CC[C@H](O)C5)nc34)cn2)CC1 [Compound 205]
10 to 100 nM	≤ 10 nM	CCc1nc2c(N)ncc(-c3cnn(C4CCNCC4)c3)c2nc1NC1CCC(O)C1 (centres unmarked) [Compound 206]
≤ 10 nM	≤ 10 nM	CCc1nc2c(N)ncc(-c3cnn(C4CCN(CCO)CC4)c3)c2nc1N[C@@H]1CC[C@H](O)C1 [Compound 207, (1S,3R)-3-((5-amino-3-ethyl-8-(1-(1-(2-hydroxyethyl)piperidin-4-yl)-1H-pyrazol-4-yl)pyridino[3,4-b]pyrazin-2-yl)amino)cyclopentan-1-ol]
≤ 10 nM	≤ 10 nM	CCc1nc2c(N)ncc(-c3cnn(C4CCN(C5CCOCC5)CC4)c3)c2nc1N[C@@H]1CC[C@H](O)C1 [Compound 208]
≤ 10 nM	≤ 10 nM	CCc1nc2c(N)ncc(-c3cnn(C4CCN(C5COC5)CC4)c3)c2nc1N[C@@H]1CC[C@H](O)C1 [Compound 209]
≤ 10 nM	≤ 10 nM	CCc1nc2c(N)ncc(-c3cnn(C4CCN(C5CN(C)C5)CC4)c3)c2nc1N[C@@H]1CC[C@H](O)C1 [Compound 210]
≤ 10 nM	≤ 10 nM	CCc1nc2c(N)ncc(-c3cnn(C4CCN(C5CC5)CC4)c3)c2nc1N[C@@H]1CC[C@H](O)C1 [Compound 211]
≤ 10 nM	≤ 10 nM	CCc1nc2c(N)ncc(-c3cnn(C4CCN(C5CCC5)CC4)c3)c2nc1N[C@@H]1CC[C@H](O)C1 [Compound 212]
≤ 10 nM	≤ 10 nM	CCc1nc2c(N)ncc(-c3cnn(C4CCN(C5CCCC5)CC4)c3)c2nc1N[C@@H]1CC[C@H](O)C1 [Compound 213]
≤ 10 nM	≤ 10 nM	CCc1nc2c(N)ncc(-c3cnn(C4CCN(C5CCCCC5)CC4)c3)c2nc1N[C@@H]1CC[C@H](O)C1 [Compound 214]
≤ 10 nM	≤ 10 nM	CCc1nc2c(N)ncc(-c3cnn(C4CCN(C)CC4)c3)c2nc1N[C@@H]1CC[C@H](O)C1 [Compound 215]
≤ 10 nM	≤ 10 nM	CCc1nc2c(N)ncc(-c3cnn(C4CCN(CC)CC4)c3)c2nc1N[C@@H]1CC[C@H](O)C1 [Compound 216]
≤ 10 nM	≤ 10 nM	CCc1nc2c(N)ncc(-c3cnn(C4CCN(C(C)C)CC4)c3)c2nc1N[C@@H]1CC[C@H](O)C1 [Compound 217]
≤ 10 nM	≤ 10 nM	CCc1nc2c(N)ncc(-c3cnn(C4CCN(CC(F)F)CC4)c3)c2nc1N[C@@H]1CC[C@H](O)C1 [Compound 218]
≤ 10 nM	≤ 10 nM	CCc1nc2c(N)ncc(-c3cnn(C4CCN(CC(F)(F)F)CC4)c3)c2nc1N[C@@H]1CC[C@H](O)C1 [Compound 219]
≤ 10 nM	≤ 10 nM	[2H]C([2H])([2H])N1CCC(n2cc(-c3cnc(N)c4nc(CC)c(N[C@@H]5CC[C@H](O)C5)nc34)cn2)CC1 [Compound 220]
≤ 10 nM	≤ 10 nM	[2H]C([2H])([2H])C(N1CCC(n2cc(-c3cnc(N)c4nc(CC)c(N[C@@H]5CC[C@H](O)C5)nc34)cn2)CC1)C([2H])([2H])[2H] [Compound 221]
